Results on 14 compounds are retold here after patent US11992490B2, “Use of JAK1 inhibitors for the treatment of cutaneous lupus erythematosus and Lichen planus (LP)” (Incyte Corporation, priority 2019, dated 2024).

pIC50: −log10 of the molar value. Where only a bound is given, the exact number is not on record here.

Test [1] deals with human JAK2 (a.a. 828-1132) (Homo sapiens (Human), UniProt O60674). Nature of the test: In vitro JAK kinase assay (HTRF), JAK2. It is filed as biochemical. The settings on record: JAK2/JAK1 IC50 ratio, 1 mM ATP.
Chain of human JAK2 (a.a. 828-1132) (O60674 828-1132): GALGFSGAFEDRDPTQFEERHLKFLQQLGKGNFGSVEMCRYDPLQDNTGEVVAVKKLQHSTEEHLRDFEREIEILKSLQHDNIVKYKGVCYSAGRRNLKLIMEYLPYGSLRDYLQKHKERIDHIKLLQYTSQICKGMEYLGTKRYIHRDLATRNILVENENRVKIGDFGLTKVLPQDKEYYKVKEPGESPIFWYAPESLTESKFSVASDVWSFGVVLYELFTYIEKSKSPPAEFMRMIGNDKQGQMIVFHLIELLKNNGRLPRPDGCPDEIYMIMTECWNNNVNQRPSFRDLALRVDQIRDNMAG
The target in test [2] is human JAK1 (a.a. 837-1142) (Homo sapiens, UniProt P23458). Put plainly: In vitro JAK kinase assay (HTRF), JAK1. In kind it is biochemical. The settings on record: 1 mM ATP.
The next test concerns MRL-lpr mice. Put plainly: Topical treatment of CLE-like lesions in lupus-prone MRL-lpr mice. In kind it is in vivo, mouse. The source says: Topical treatment with JAK1-selective INCB054707 started with the MRL-lpr Mice at 11 weeks of age.
The subject of test [3] is JAK1-phosphorylation in HaCaT keratinocytes. Nature of the test: JAK1-phosphorylation (anti-pJAK1 immunofluorescence) in eNA-stimulated HaCaT. It is filed as cell-based, human. The settings on record: inhibitor 1 μM.
[4] abbreviates: second independent experiment, dose-response.
Setting [5] is: topical, 11 to 22 weeks, compared to placebo-treated mice.

For the compound `N#CC[C@]1(n2cc(-c3ncnc4[nH]ccc34)cn2)C[C@H](N2CCC(Oc3cc(CN4CCC[C@H]4CO)cc(C(F)(F)F)n3)CC2)C1` [Compound 12, {trans-3-(4-{[4-{[(2S)-2-(hydroxymethyl)pyrrolidin-1-yl]methyl}-6-(trifluoromethyl)pyridin-2-yl]oxy}piperidin-1-yl)-1-[4-(7H-pyrrolo[2,3-d]pyrimidin-4-yl)-1H-pyrazol-1-yl]cyclobutyl}acetonitrile], the JAK2/JAK1 in test [1] is given as over 10. The pIC50 in test [2] was over 8.00.

For `N#CC[C@]1(n2cc(-c3ncnc4[nH]ccc34)cn2)C[C@H](N2CCC(Oc3cc(CN4CCC[C@@H]4CO)cc(C(F)(F)F)n3)CC2)C1` [Compound 13, {trans-3-(4-{[4-{[(2R)-2-(hydroxymethyl)pyrrolidin-1-yl]methyl}-6-(trifluoromethyl)pyridin-2-yl]oxy}piperidin-1-yl)-1-[4-(7H-pyrrolo[2,3-d]pyrimidin-4-yl)-1H-pyrazol-1-yl]cyclobutyl}acetonitrile], in test [1], the JAK2/JAK1 is listed as over 10. The pIC50 in test [2] was over 8.00.

On to `C[C@H](NC(=O)c1cc(F)c(N2CC(CC#N)(n3cc(-c4ncnc5[nH]ccc45)cn3)C2)cc1F)C(F)(F)F` [Compound 16, 4-{3-(cyanomethyl)-3-[4-(7H-pyrrolo[2,3-d]pyrimidin-4-yl)-1H-pyrazol-1-yl]azetidin-1-yl}-2,5-difluoro-N-[(1S)-2,2,2-trifluoro-1-methylethyl]benzamide], for which, in test [1], the JAK2/JAK1 was over 10. In test [2], this compound gave a pIC50 of over 8.00.

On to `N#CCC1(n2cc(-c3ncnc4[nH]ccc34)cn2)CN([C@H]2CC[C@@H](Oc3cc(CCO)nc(C(F)(F)F)n3)CC2)C1` [Compound 18, {1-(cis-4-{[6-(2-hydroxyethyl)-2-(trifluoromethyl)pyrimidin-4-yl]oxy}cyclohexyl)-3-[4-(7H-pyrrolo[2,3-d]pyrimidin-4-yl)-1H-pyrazol-1-yl]azetidin-3-yl}acetonitrile], for which the JAK2/JAK1 in test [1] is given as over 10. The same compound showed a negative logarithm of the IC50 (pIC50) in test [2] of over 8.00.

With `CCNCc1cc(O[C@H]2CC[C@@H](N3CC(CC#N)(n4cc(-c5ncnc6[nH]ccc56)cn4)C3)CC2)nc(C(F)(F)F)c1` [Compound 19, {1-(cis-4-{[4-[(ethylamino)methyl]-6-(trifluoromethyl)pyridin-2-yl]oxy}cyclohexyl)-3-[4-(7H-pyrrolo[2,3-d]pyrimidin-4-yl)-1H-pyrazol-1-yl]azetidin-3-yl}acetonitrile], the JAK2/JAK1 in test [1] is on record as over 10. This compound had a pIC50 in test [2] of over 8.00.

As to `CC(C)(O)c1cc(O[C@H]2CC[C@@H](N3CC(CC#N)(n4cc(-c5ncnc6[nH]ccc56)cn4)C3)CC2)nc(C(F)(F)F)c1` [Compound 20, {1-(cis-4-{[4-(1-hydroxy-1-methylethyl)-6-(trifluoromethyl)pyridin-2-yl]oxy}cyclohexyl)-3-[4-(7H-pyrrolo[2,3-d]pyrimidin-4-yl)-1H-pyrazol-1-yl]azetidin-3-yl}acetonitrile], the JAK2/JAK1 in test [1] was over 10. Further, the pIC50 in test [2] is over 8.00.

On to `N#CCC1(n2cc(-c3ncnc4[nH]ccc34)cn2)CN([C@H]2CC[C@@H](Oc3cc(CN4CC[C@@H](O)C4)cc(C(F)(F)F)n3)CC2)C1` [Compound 21, {1-(cis-4-{[4-{[(3R)-3-hydroxypyrrolidin-1-yl]methyl}-6-(trifluoromethyl)pyridin-2-yl]oxy}cyclohexyl)-3-[4-(7H-pyrrolo[2,3-d]pyrimidin-4-yl)-1H-pyrazol-1-yl]azetidin-3-yl}acetonitrile], for which the JAK2/JAK1 in test [1] is on record as over 10. Further, in test [2], the pIC50 was over 8.00.

On to `N#CCC1(n2cc(-c3ncnc4[nH]ccc34)cn2)CN([C@H]2CC[C@@H](Oc3cc(CN4CC[C@H](O)C4)cc(C(F)(F)F)n3)CC2)C1` [Compound 22, {1-(cis-4-{[4-{[(3S)-3-hydroxypyrrolidin-1-yl]methyl}-6-(trifluoromethyl)pyridin-2-yl]oxy}cyclohexyl)-3-[4-(7H-pyrrolo[2,3-d]pyrimidin-4-yl)-1H-pyrazol-1-yl]azetidin-3-yl}acetonitrile], for which the JAK2/JAK1 in test [1] was over 10. The compound further gave a pIC50 in test [2] of over 8.00.

For the compound `C[C@@H](CO)NCc1cc(OC2CCN([C@H]3C[C@](CC#N)(n4cc(-c5ncnc6[nH]ccc56)cn4)C3)CC2)nc(C(F)(F)F)c1` [Compound 23, {trans-3-(4-{[4-({[(1S)-2-hydroxy-1-methylethyl]amino}methyl)-6-(trifluoromethyl)pyridin-2-yl]oxy}piperidin-1-yl)-1-[4-(7H-pyrrolo[2,3-d]pyrimidin-4-yl)-1H-pyrazol-1-yl]cyclobutyl}acetonitrile], the JAK2/JAK1 in test [1] is reported as over 10. Also, the pIC50 in test [2] was over 8.00.

In the case of `C[C@@H](O)CNCc1cc(OC2CCN([C@H]3C[C@](CC#N)(n4cc(-c5ncnc6[nH]ccc56)cn4)C3)CC2)nc(C(F)(F)F)c1` [Compound 24, {trans-3-(4-{[4-({[(2R)-2-hydroxypropyl]amino}methyl)-6-(trifluoromethyl)pyridin-2-yl]oxy}piperidin-1-yl)-1-[4-(7H-pyrrolo[2,3-d]pyrimidin-4-yl)-1H-pyrazol-1-yl]cyclobutyl}acetonitrile], the JAK2/JAK1 in test [1] was over 10. In test [2], this compound showed a negative-log IC50 (pIC50) of over 8.00.

As to `C[C@H](O)CNCc1cc(OC2CCN([C@H]3C[C@](CC#N)(n4cc(-c5ncnc6[nH]ccc56)cn4)C3)CC2)nc(C(F)(F)F)c1` [Compound 25, {trans-3-(4-{[4-({[(2S)-2-hydroxypropyl]amino}methyl)-6-(trifluoromethyl)pyridin-2-yl]oxy}piperidin-1-yl)-1-[4-(7H-pyrrolo[2,3-d]pyrimidin-4-yl)-1H-pyrazol-1-yl]cyclobutyl}acetonitrile], the JAK2/JAK1 in test [1] is over 10. In test [2], this compound had a pIC50 of over 8.00.

For the compound `N#CC[C@]1(n2cc(-c3ncnc4[nH]ccc34)cn2)C[C@H](N2CCC(Oc3cc(CCO)cc(C(F)(F)F)n3)CC2)C1` [Compound 26, {trans-3-(4-{[4-(2-hydroxyethyl)-6-(trifluoromethyl)pyridin-2-yl]oxy}piperidin-1-yl)-1-[4-(7H-pyrrolo[2,3-d]pyrimidin-4-yl)-1H-pyrazol-1-yl]cyclobutyl}acetonitrile], in test [1], the JAK2/JAK1 is on record as over 10. In test [2], this compound gave a pIC50 of over 8.00.

Consider `Cc1n[nH]c(C)c1-c1cnn(C2(CC#N)CN(c3cc(F)c(C(=O)N[C@@H](C)C(F)(F)F)cc3F)C2)c1` [INCB054707], for which, in the test with MRL-lpr mice (setting [4]), the “cumulative skin lesion disease burden” value is given as “significant dose-dependent effects”, the “daily cutaneous skin lesion score” value is on record as “significant dose-dependent effects” and the “incidence of mice with skin lesions” value was “significant dose-dependent effects”. Also, the “cumulative skin lesion disease burden (area under the curve)” value with MRL-lpr mice (topical, 11 to 22 weeks) is “significantly reduced”. For the same compound, in the test with MRL-lpr mice (setting [5]), the “cutaneous skin lesion score” value is on record as “significantly reduced” and the “incidence of mice with skin lesions” value is recorded as “significantly reduced”. Besides, in the test with MRL-lpr mice (topical, dose-dependent), the “inflammatory markers, RNAseq of skin biopsy” value is reported as “downregulation of multiple inflammatory markers”. Moreover, the “lesional skin regarding erythema, induration, scaling and size” value with MRL-lpr mice (topical, from 11 weeks to 22 weeks of age) is on record as “continuously improved”.

Consider `N#CC[C@H](C1CCCC1)n1cc(-c2ncnc3[nH]ccc23)cn1` [Ruxolitinib, (3R)-3-cyclopentyl-3-[4-(7H-pyrrolo[2,3-d]pyrimidin-4-yl)-1H-pyrazol-1-yl]propanenitrile, reference compound], for which, in test [3], the “activation of JAK1 (JAK1-phosphorylation)” value is recorded as “significantly decreased”.
